Laboratory results from patent US20160367497A1, “METHODS AND COMPOSITIONS FOR TREATING NEUROPATHIES” (Washington University, priority 2007, published 2016).

Key:
[1] = system: DRG neuronal explant cultures; test: in vitro Wallerian degeneration assay, DRG explant neurite transection; type: cell-based, mouse
Description: To identify the mechanism of delayed axonal degeneration mediated by the Wlds protein, we employed an in-vitro Wallerian degeneration model. Primary DRG explant neurons were infected with lentivirus expressing the appropriate proteins, and axons were injured by either removal of the neuronal cell body (transection) or growth in vincristine (toxic).
Mouse DRG explants from E12.5 embryos were cultured in the presence of 1 nM nerve growth factor. Non-neuronal cells were removed from the cultures by adding 5-fluorouracil to the culture medium. Transection of neurites was performed at 10-20 DIV using an 18-gauge needle to remove the neuronal cell bodies. Incubation with β-nicotinamide adenine dinucleotide (Sigma) or Sirtinol (Calbiochem) was performed using conditions indicated in the text or figures.
Quantitative analysis of axonal degeneration was performed as previously described (Zhai, et al., Neuron 39:217-25, 2003). Briefly, the cultures were examined using phase contrast microscopy at the indicated times. Axons with a fragmented, non-refractile appearance were designated as “degenerated.” At each time point, at least 200 singly distinguishable axons were blindly scored from several randomly taken images of each culture. Each condition was tested in triplicate explants in each experiment. Results were obtained from 2-4 independent experiments for each condition. Statistical analysis was performed by Student's T test. For calculations of neurite-covered area, digitally captured images from quadruplicate samples of two independent experiments were analyzed using analysis 3.1 software (Soft Imaging System, Lakewood, Colo.).
Cell culture, in vitro axotomy, and quantification of axonal degeneration. Mouse DRG explants from E12.5 embryos were cultured in the DMEM containing 10% FCS and 1 nM nerve growth factor. Non-neuronal cells were removed from the cultures by adding 5-fluorouracil to the culture media. Transection of neurites was performed at 14-21 DIV using an 18-gauge needle to remove the neuronal cell bodies. Lentiviral expression vectors were generated. Lentiviral infection was performed 3-7 days prior to axonal transection for 24 hr. Quantitative analysis of neurite degeneration was performed.

AMPK = AMPK and ACC phosphorylation in DRG sensory neurons; type: cell-based, mouse; conditions: for effect on resveratrol-induced AMPK phosphorylation: DRG neurons, resveratrol 10 μM, 2 h
Text: (A) Embryonic DRG neurons from Lkb1 flox/flox mice were infected with lentivirus expressing Cre recombinase (FCIV-Cre) or GFP only (FUGW control). Lentiviral infection was monitored by GFP fluorescence (A). […] Lkb1 flox/flox DRG neurons were infected with FUGW or FCIV-Cre and treated as indicated. AMPK or ACC was immunoprecipitated from neuronal lysates and western blots were probed with the respective phospho-specific antibodies. […] No inhibition of AMPK or ACC phosphorylation was observed by treatment with SIRT1 or CaMKKβ inhibitors. Lysate from AICAR treated DRG neurons was included as a positive control. (E, F) Embryonic DRG neurons were cultured from wild type and SIRT1-deficient littermates derived from SIRT1 heterozygous matings. […] Levels of total AMPK and ACC are shown in the bottom panels of C, D, E and F. Densitometric analysis of changes in levels of phospho AMPK (G) and phospho ACC (H) in SIRT1+/+ and SIRT1−/− DRG neurons in presence and absence of resveratrol is shown. Note: Resv, resveratrol.
Cell culture and Reagents. Neuro2 cells obtained from ATCC were grown in MEM with 1.5 g/L sodium bicarbonate, 0.1 mM nonessential amino acids, 0.1 mM sodium pyruvate, 2 mM L-glutamine with 10% FCS. For differentiation, cells were switched to serum-starvation medium (containing 0.2% FCS). For neurite outgrowth measurements, experiments were done in quadruplicate and 100 neurites per well were randomly measured using the Metamorph software. Dorsal root ganglia sensory and cortical neurons were established from E13.5 mouse embryos, maintained in neurobasal medium supplemented with B27 (and NGF for DRG neurons) and infected with lentiviruses as described (Araki et al., 2004, Science 305:1010-1013; Hawley et al., 2005, Cell Metab 2:21-23). Resveratrol was a gift from Sirtris Pharmaceuticals (Cambridge Mass.) and AICAR was obtained from Toronto Research (North York, Canada). Splitomycin and Compound C were purchased from Biomol (Plymouth Meeting, Pa.) and Calbiochem (San Diego, Calif.). Sirtinol and nicotinamide were purchased from Sigma (Saint Louis, Mo.)
Plasmids and viruses. The dominant negative (dnAMPK) and constitutively active (caAMPK) plasmids were gifts from Russell Jones (University of Pennsylvania, Philadelphia Pa.), and pCXN-Cre was a gift of Inder Verma (Salk Institute, San Diego, Calif.). All constructs were subcloned into the lentiviral shuttle vector FCIV and verified by nucleotide sequence analysis. Viruses were prepared as previously described (Araki et al., 2004, Science 305:1010-1013). Protein and mRNA analysis. Immunoprecipitations and western blot analysis were performed by standard methods using antibodies directed against total AMPK, phosphorylated AMPK, total ACC or phosphorylated ACC that were obtained from Cell Signaling Technology (Beverley, Mass.). The phospho-AMPK antibody detects endogenous AMPK α1 and α2 when phosphorylated at threonine 172. The LKB1 antibody was purchased from Upstate (Lake Placid, N.Y.). Quantitative RT-PCR analysis was performed using Sybr-Green methodology on a model 7700 instrument (Applied Biosystems) as previously described (Araki et al., 2004, Science 305:1010-1013). Primer sequences were those used in previous studies (Motoshima, et al., 2006, J Physiol 574:63-71).
Resveratrol activation of AMPK in Neuro2a cells along with the crucial role of AMPK in promoting neurite outgrowth in these cells encouraged us to examine this pathway in primary neurons. […]

Row | Compound | effect on resveratrol-induced AMPK phosphorylation (AMPK) | also measured
1 | NC(=O)c1cccnc1 [Nam, nicotinamide] | none of the SIRT inhibitors | neurite protection after transection ([1]; 1 mM applied for 24 hours before neurite transection): had no effect
2 | O=C(O)c1ccc2c3c1cccc3c(=O)n1c3ccccc3nc21 [STO 609] | had no effect | 
3 | CC(NC(=O)c1ccccc1/N=C/c1c(O)ccc2ccccc12)c1ccccc1 (centres unmarked) [Sirtinol] | none of the SIRT inhibitors | effect on NAD-dependent axonal protection (NDAP) ([1]; neurons cultured in 1 mM NAD, Sirtinol 100 μM, 3AB 20 mM or siRNA lentivirus, 12 to 72 hr after transection): effectively blocked NDAP
4 | Oc1ccc(C=Cc2cc(O)cc(O)c2)cc1 [resveratrol] |  | axonal degradation after axotomy ([1]; 10~100 μM, treated prior to axotomy): decrease in axonal degradation that was comparable to that obtained using NAD; phosphorylation of AMPK and ACC (AMPK; E13.5 DRG sensory neurons, 10 μM): stimulated phosphorylation of AMPK and ACC
5 | O=C1CCc2c(ccc3ccccc23)O1 [splitomycin] | none of the SIRT inhibitors | 
